Data as given in patent publication US6630174B2, “Methods and compositions for retarding and eradicating infestation in trees and tree derived products” (Nisus Corporation, priority 1990, dated 2003).

How the values were obtained:
[1] = tested on: broad spectrum of infestation; experiment: Boron concentration effective against infestation; type: in vivo; settings: concentration in the wood
dry wood termites = settings: in vivo; cited from earlier work

SMILES	concentration generally effective for preventing or eradicating a broad spectrum of infestation [1] [ppm]	boron concentration efficacious against dry wood termites (dry wood termites) [parts per million]
O.O.O.O.O=BOB1OB(OB=O)OB2OB([O-])OB([O-])OB(O1)O2.[Na+].[Na+] [DOT, disodium octaborate tetrahydrate]	2400	
[B] [boron]	500	100
